In patent US11690828B2, “Treatment of CNS diseases with sGC stimulators” (Cyclerion Therapeutics, Inc., priority 2016, dated 2023):

Experiments:
Healthy rats [1] = assay: Healthy rats - paw pressure test; type: in vivo, rat; conditions: internal reference Morphine 4 mg/kg s.c.
Experimental: (§1) Paw Pressure Test. Static mechanical hyperalgesia is measured. This test requires the application of an increasing pressure on the hind paws between a flat surface and a blunt pointer. To evaluate the analgesic action of a compound, one hind paw of the animal was inflamed by an injection or injured by ligation, while the other hind paw was not injured or inflamed. The apparatus exerted a steadily increasing force on the hind paws. The reaction threshold was determined as the pressure (g) required to elicit paw withdrawal and/or vocalization. The animals were gently handled by the experimenter and static mechanical hyperalgesia were assessed two times for both hind paws.
(§2) Testing: 120 minutes after treatment. N=4/model/test. Results are expressed for each group as a percentage of activity calculated from the mean value of the vehicle-treated animals and compared to naïve animals, control paw, or cut-off value, depending on the test.

rats [2] = assay: Formalin test - score; type: in vivo, rat; conditions: internal reference Morphine 4 mg/kg s.c.
Experimental: Formalin Test. 2.5% formalin solution was injected by subplantar route into the right hind paw. Scoring of pain behavior was performed in rats for 36 minutes every 3 minutes according to the following scores:
0=normal behavior of the injected hind limb to support the body
1=slight touching of the injected paw on the floor to lightly support or not support the body
2=total withdrawal of the injected paw
3=licking, biting or shaking of the injected paw.
as §2

rats [3] = assay: Bennett model - paw pressure test; type: in vivo, rat; conditions: internal reference Morphine 3 mg/kg s.c.
Experimental: as §1
Bennett Model. Peripheral mononeuropathy was induced by loose ligation of the sciatic nerve in anesthetized rats (Xylazine 10 mg/kg i.p., ketamine 60 mg/kg i.p.) on D−14. Briefly, the common sciatic nerve was exposed at the level of the middle of the thigh by blunt dissection through the biceps femoris. Proximal to the sciatic trifurcation, four ligatures were loosely tied around it with about 1-mm spacing. […]
Testing: 120 minutes after treatment. […] Results are expressed for each group as a percentage of activity calculated from the mean value of the vehicle-treated animals and compared to naïve animals, control paw, or cut-off value, depending on the test.

rats [4] = assay: Brennan model - electronic Von Frey test; type: in vivo, rat; conditions: internal reference Morphine 4 mg/kg s.c.
Excerpt: Brennan Model. Surgery: Surgery was done under gas anesthesia (2.5% isoflurane/3 L/min). For all rats, the plantar aspect of the left hind paw was exposed and a 1 cm longitudinal incision was made using a surgical blade, through the skin and fascia of the plantar aspect of the foot, starting 0.5 cm from the proximal edge of the heel and extending toward the toes. The plantaris muscle was elevated and incised longitudinally whereas the insertions remained intact. After hemostasis with gentle pressure, the skin was stitched up with two sutures. After surgery, animals recovered in their cages.
Electronic Von Frey Test. Tactile allodynia was assessed using the electronic Von Frey test 24 h after surgery. The test requires the application of an increasing pressure onto the plantar aspect of the hind paws. The apparatus exerted a steady force on the hind paws. Reaction thresholds were determined as the pressure (g) required to elicit paw withdrawal. Each reaction threshold measurement was repeated three times for both hind paws with intervals of approximately 2 to 3 mins.
as §2

Healthy rats [5] = assay: Healthy rats - tail flick test; type: in vivo, rat; conditions: internal reference Morphine 4 mg/kg s.c.
Experimental: Tail Flick Test. A radiant heat was applied on the tail. When the rat felt discomfort, it reacted by a sudden tail movement (tail flick) which automatically stopped the stimulation and the timer for the measurement by the animal reaction time or nociceptive reaction latency (period from the beginning of the stimulation until detection of the response of the animal). A cut-off was previously fixed at 10 sec in order to prevent tissue damage.
as §2

[6] = Rat cerebrospinal fluid (CSF) pharmacokinetic properties; type: in vivo; conditions: male, Sprague-Dawley; for concentration at 1 h: CSF, PO 10 mg/kg in PEG400, 1 h post-dosing, read-out: CSF Conc (nM @ 1 h); for Kp uu at 1 h: PO 10 mg/kg, unbound CSF / unbound plasma
Experimental: PK in rats was determined following oral dosing. For the oral (PO) experiments, a group of 6 male Sprague-Dawley rats with an indwelling catheter placed in the cisterna magna were used. The PO group was dosed with 3 or 10 mg/kg of a compound formulated as a solution in PEG400. PO doses were administered by oral gavage and delivered to the stomach using a syringe and gavage tube. Following oral dosage administration, the gavage tube was flushed with approximately 0.5 mL of water to ensure complete delivery of the full dose.
Plasma and CSF samples were collected as follows: samples of CSF and blood were collected at 1 hour and 2 hours post-dosing. CSF samples (0.05 mL) were collected through the intracisternal catheter. Blood samples (0.25 mL) were collected through retro-orbital sampling. These samples were kept on ice until processed for plasma. Blood samples were centrifuged at 3200 rpm for 5 minutes at approximately 5° C. within 1 hour of collection. Plasma was directly transferred to a 96-well plate tube (0.125 mL). Plug caps were placed on the tubes and the tubes frozen at approximately −70° C. and stored until analysis.
Plasma was collected and analyzed for the presence of compound.
The compound in question and the internal standard were extracted from plasma and CSF by precipitation. Samples were analyzed using liquid chromatography (LC) with tandem mass spectrometric detection (MS/MS) using electrospray ionization. The standard curve range was from 1 to 1000 ng/mL.
Kp,uu is defined as the concentration ratio of unbound drug in CSF to unbound drug in plasma. Unbound drug in plasma (or free plasma concentration) is calculated by multiplying the total plasma concentration by the unbound fraction as determined by plasma protein binding. The CSF concentration is then divided by the free plasma concentration to determine the Kp,uu. (See e.g., Di et al., J. Med. Chem., 56, 2-12 (2013)).

male Long Evans rats = assay: Novel Object Recognition (NOR) test, MK-801-induced memory deficit; type: in vivo, rat
rats [7] = assay: Carrageenan - paw pressure test; type: in vivo, rat; conditions: internal reference Indomethacin 30 mg/kg p.o.
Experimental: as §1
Carrageenan. Induction: Three hours before assessment of the nociceptive threshold using the paw pressure test 100 μL of a 2% carrageenan suspension was injected into the plantar aspect of the right hind paw. The Paw Pressure test was then conducted as described above.
as §2

rats [8] = assay: Kaolin - gait score; type: in vivo, rat; conditions: internal reference Indomethacin 10 mg/kg p.o.
Experimental: Kaolin. Induction: In rats, unilateral arthritis was induced by an intra-articular injection of a 10% kaolin suspension into the knee joint of the right hind paw under gas anesthesia (3.5% isoflurane/3 L/min). Gait score: The gait score will be evaluated 3 h 30 min after kaolin administration by:
2: intermittent raising of the paw
as §2

sGC = assay: cGMP neuronal cell-based assay; conditions: rat primary hippocampal neurons; 30 μM DETA-NO; 50% of high control (10 μM Compound Y); read-out: sGC-neuron Abs EC50
Experimental: Rat primary neurons were isolated from fetuses of 18-day pregnant Sprague-Dawley females. The fetuses were collected in Hanks' balanced salt solution (HBSS) and brains were rapidly removed. The cerebral hippocampi were isolated and mechanically fragmented. Further tissue digestion was performed with 0.25% (wt/vol) trypsin solution in HBSS without Ca2+ and Mg2+ for 15 min at 37° C. After trypsination, cells were washed and resuspended in neurobasal medium supplemented with 0.5 mM L-glutamine, 12.5 uM glutamic acid, 2% B-27 and 100 U/mL penicillin, and 100 μg/mL streptomycin. Cells were plated at a density of 4×10^4 cells/well in a poly-D-lysine coated 384-well flat clear-bottom plate (Corning Cat No 354662). Cells were incubated 6-7 days at 37° C. in a humidified chamber with 5% CO2. Media was removed and cells were washed 1× with HBSS containing Ca2+ and Mg2+, and replaced with 40 uL HBSS containing 0.5 mM IBMX, and incubated for 15 minutes at 37° C. 10 uL of a 5× stock of test compounds with diethylenetriamine NONOate (DETA-NO) was added. Final concentration of DETA-NO was 30 μM. Cells were incubated for 20 min at 37° C. Medium was removed, 50 uL of ice-cold 10% acetic acid was added, and incubated for 60 minutes at 4° C. Following centrifugation at 4° C. for 5 minutes at 1000×g to pellet cell debris, the supernatant was aspirated to a clean plate and the samples were analyzed for cGMP content. cGMP concentrations were determined from each sample using LC-MS/MS.
Data were normalized to a high control using the following equation: 100*(Sample−Low Control)/(High Control−Low Control), where the low control is the average of 15 samples treated with 1% DMSO, and the high control is the average of 15 samples treated with 10 μM of the known sGC stimulator Compound Y (depicted in Example 2). Data were fit using a 4-parameter fit (log(agonist) vs. response—variable slope) using GraphPad Prism Software v.5. n=2 for all compounds. […]

CN1CC[C@]23c4c5ccc(O)c4O[C@H]2[C@@H](O)C=C[C@H]3[C@H]1C5 [Morphine, reference compound]
% of activity vs. vehicle, healthy rats paw pressure test (Healthy rats [1]): 69% | % of activity vs. vehicle, formalin test score (early phase) (rats [2]): 57% | % of activity vs. vehicle, formalin test score (late phase) (rats [2]): 38% | % of activity vs. vehicle, Bennett model paw pressure test (rats [3]): 191% | % of activity vs. vehicle, Brennan model electronic Von Frey test (rats [4]): 88% | % of activity vs. vehicle, healthy rats tail flick test (Healthy rats [5]): 66%

Cc1ncc(Cc2nc(-c3nc(C(F)(F)F)n[nH]3)n3ccccc23)cn1 [Compound I-4]
concentration at 1 h [6]: 180 nM | Kp uu at 1 h [6]: 0.96

C[C@]12N[C@H](Cc3ccccc31)c1ccccc12 [MK-801, MK-801 (Dizocilpine), reference compound]
Effect on recognition memory, 0-3 minute time range (male Long Evans rats; MK-801 0.1 mg/kg): strong memory deficit | Effect on recognition memory, 0-5 minute time range (male Long Evans rats; MK-801 0.1 mg/kg): strong memory deficit | Recognition Index, Mean (0 to 3 minute time bin) (male Long Evans rats; Vehicle + MK-801 0.1 mg/kg IP, Vehicle + Saline control 73.78): 56.92%

COc1ccc2c3c1O[C@H]1C[C@@H](O)C=C[C@@]31CCN(C)C2 [Galantamine, reference compound]
Recognition Index, Mean (0 to 3 minute time bin) (male Long Evans rats; Galantamine 1 mg/kg IP + MK-801 0.1 mg/kg IP): 73.33%

COc1ccc2c(c1)c(CC(=O)O)c(C)n2C(=O)c1ccc(Cl)cc1 [Indomethacin, reference compound]
% of activity vs. vehicle, carrageenan paw pressure test (rats [7]): 100% | % of activity vs. vehicle, kaolin gait score (rats [8]): 58%

Fc1ccccc1Cc1nc(-c2nc(C(F)(F)F)n[nH]2)c2cccnn12 [Compound I-6]
concentration at 1 h [6]: 0.78 nM | Kp uu at 1 h [6]: < 0.01

Fc1ccccc1Cc1nc(-c2nc(C(F)(F)F)n[nH]2)n2ccccc12 [Compound I-3]
EC50 (sGC): ≤ 100 nM
